Data set [1] has as its system RAW264.7. Kind of data set: Antiinflammatory activity in mouse RAW264.7 cells assessed as inhibition of LPS-induced nitric oxide production by measuring nitrite accumulation by Griess method. It counts as functional, cell-based.
Data set [2] relates to RAW264.7. The data set can be described thus: Antiinflammatory activity in mouse RAW264.7 cells assessed as inhibition of LPS-induced iNOS mRNA expression after 20 hrs by RT-PCR method. It counts as functional, cell-based.
Data set [3] deals with RAW264.7. The data set can be described thus: Antiinflammatory activity in mouse RAW264.7 cells assessed as inhibition of LPS-induced COX2 mRNA expression after 20 hrs by RT-PCR method. It counts as functional, cell-based.
In data set [4] the test system is RAW264.7. Kind of data set: Cytotoxicity in LPS-stimulated mouse RAW264.7 cells at =>100 uM by MTT assay. It is filed as cell-based.
For data set [5], the system named is RAW264.7. Kind of data set: Cytotoxicity in LPS-stimulated mouse RAW264.7 cells at =>10 uM by MTT assay. It is filed as cell-based.

On to `CO[C@@H]1C[C@H](O[C@H]2CC[C@@]3(C)C(=CC[C@@H]4[C@@H]3C(=O)[C@@H]3O[C@H](C)[C@@H]5CC[C@@]4(O)[C@]35C)C2)O[C@H](C)[C@@H]1OC(C)=O`, for which the 50% inhibitory concentration (IC50) in the data set with RAW264.7 [1] (read-out: IC50) was determined as 91.2 µM.

As to `COC(=O)[C@H]1[C@@H](C(=O)CC[C@H]2[C@H](C)OC(=O)[C@H]2C)CC=C2C[C@@H](O[C@H]3C[C@@H](OC)[C@@H](OC(C)=O)[C@@H](C)O3)CC[C@@]21C`, the 50% inhibitory concentration (IC50) with RAW264.7 [1] (read-out: IC50) worked out at 12.6 µM. In addition, the results for the Activity entry in the data set on RAW264.7 [2], in the data set on RAW264.7 [3] and in the data set on RAW264.7 [4] were “Dose-dependent effect”, “Dose-dependent effect” and “Toxic”, respectively.

In the case of `COC(=O)[C@H]1[C@@H](C(=O)CC[C@H]2[C@H](C)OC(=O)[C@@H]2C)CC=C2C[C@@H](O[C@H]3C[C@@H](OC)[C@@H](O)[C@@H](C)O3)CC[C@@]21C`, the IC50 in the data set with RAW264.7 [1] (read-out: IC50) turned out to be 87.3 µM. In the data set with RAW264.7 [5], the Activity result is listed as “Toxic”.

Consider `COC(=O)[C@H]1[C@@H](C(=O)CC[C@H]2[C@H](C)OC(=O)[C@@H]2C)CC=C2C[C@@H](O[C@H]3C[C@@H](OC)[C@@H](OC(C)=O)[C@@H](C)O3)CC[C@@]21C`, for which, in the data set on RAW264.7 [1] (read-out: IC50), the IC50 was 31.6 µM.

As for `CO[C@@H]1C[C@H](O[C@H]2CC[C@@]3(C)C(=CC[C@]4(O)[C@@H]3C(=O)[C@@H]3OC(C)[C@@H]5CC[C@@]4(O)[C@]35C)C2)O[C@H](C)[C@@H]1O[C@@H]1O[C@H](CO)[C@@H](O)[C@H](O)[C@H]1O` (stereo partly drawn), in the data set on RAW264.7 [1] (read-out: IC50), the IC50 was > 100 µM.

For `CO[C@@H]1C[C@H](O[C@H]2CC[C@@]3(C)C(=CC[C@]4(O)[C@@H]3C(=O)[C@@H]3O[C@H](C)[C@@H]5CC[C@@]4(O)[C@]35C)C2)O[C@H](C)[C@@H]1OC(C)=O`, the IC50 in the data set with RAW264.7 [1] (read-out: IC50) is 87.8 µM.

Take `CO[C@@H]1C[C@H](O[C@H]2CC[C@@]3(C)C(=CC[C@@H]4[C@@H]3C(=O)[C@@H]3O[C@H](C)[C@@H]5CC[C@@]4(O)[C@]35C)C2)O[C@H](C)[C@@H]1O[C@@H]1O[C@H](CO)[C@@H](O)[C@H](O)[C@H]1O`: in the data set with RAW264.7 [1] (read-out: IC50), the IC50 was > 100 µM.

Turning to `O=C(/C=C/c1ccc(O)c(O)c1)OCCc1ccccc1` [CAFFEIC ACID PHENETHYL ESTER], the 50% inhibitory concentration (IC50) in the data set with RAW264.7 [1] (read-out: IC50) amounted to 9.3 µM.

Take `CO[C@@H]1C[C@H](O[C@H]2CC[C@@]3(C)C(=CC[C@@H]4[C@@H]3C(=O)[C@@H]3O[C@H](C)[C@@H]5CC[C@@]4(O)[C@]35C)C2)O[C@H](C)[C@@H]1O`: the half-maximal inhibitory concentration (IC50) in the data set with RAW264.7 [1] (read-out: IC50) stood at 96.5 µM. Moreover, the Activity result in the data set on RAW264.7 [4] is on record as “Toxic”.

Take `N=C(NCCC[C@H](N)C(=O)O)N[N+](=O)[O-]` [NITROARGININE]: in the data set with RAW264.7 [1] (read-out: IC50), the IC50 came out at 37.7 µM.

As to `COc1ccc2c(c1)c(CC(=O)O)c(C)n2C(=O)c1ccc(Cl)cc1` [INDOMETHACIN], in the data set with RAW264.7 [1] (read-out: IC50), the half-maximal inhibitory concentration (IC50) worked out at 46.5 µM.

Consider `CO[C@@H]1C[C@H](O[C@H]2CC[C@@]3(C)C(=CC[C@@H]4[C@@H]3C(=O)O[C@@]43CC[C@H]4[C@H](C)OC(=O)[C@]43C)C2)O[C@H](C)[C@@H]1O`, for which the IC50 in the data set on RAW264.7 [1] (read-out: IC50) is 93.8 µM.

Consider `COC(=O)[C@H]1[C@@H](C(=O)CC[C@H]2[C@H](C)OC(=O)[C@H]2C)CC=C2C[C@@H](O[C@H]3C[C@@H](OC)[C@@H](O)[C@@H](C)O3)CC[C@@]21C`, for which the IC50 with RAW264.7 [1] (read-out: IC50) turned out to be 66.1 µM.

On to `CO[C@@H]1C[C@H](O[C@H]2CC[C@@]3(C)C(=CC[C@@H]4[C@@H]3C(=O)O[C@@]43CC[C@H]4[C@H](C)OC(=O)[C@]43C)C2)O[C@H](C)[C@@H]1OC(C)=O`, for which the IC50 with RAW264.7 [1] (read-out: IC50) is 60.4 µM.

Turning to `CC(C)Cc1ccc(C(C)C(=O)O)cc1` (stereo not drawn) [IBUPROFEN], the IC50 with RAW264.7 [1] (read-out: IC50) was found to be 54.5 µM.

As for `CO[C@@H]1C[C@H](O[C@H]2CC[C@@]3(C)C(=CC[C@@H]4[C@@H]3C(=O)[C@]3(O)O[C@H](C)[C@@H]5CC[C@@]4(O)[C@@]53C)C2)O[C@H](C)[C@@H]1O`, the half-inhibitory concentration (IC50) with RAW264.7 [1] (read-out: IC50) was determined as 84 µM.

Consider `CO[C@@H]1C[C@H](O[C@H]2CC[C@@]3(C)C(=CC[C@]4(O)[C@@H]3C(=O)[C@@H]3O[C@H](C)[C@@H]5CC[C@@]4(O)[C@]35C)C2)O[C@H](C)[C@@H]1O`, for which the IC50 in the data set on RAW264.7 [1] (read-out: IC50) came to 62.5 µM.

As to `CC(=O)Oc1ccccc1C(=O)O` [ASPIRIN], the IC50 with RAW264.7 [1] amounted to 43.2 µM.

Source of the values: ChEMBL document CHEMBL4190201, “Anti-inflammatory 12,20-Epoxypregnane and 11,12-seco-Pregnane Glycosides from the Stems of Hoya kerrii” (J Nat Prod, 2017).
